Results reported in PubChem BioAssay AID2060331 (Molecular Pharmacology Branch, DTP, NCI, 2025).
Several values for one entry are separate records, joined by “and”; a condition that tells them apart may be missing. Identical values can stand only once.

Tested on: Hs578T multi-cell spheroids, viability
Assay: Anticancer human tumor Hs578T cell line growth inhibition [IpAb];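 further: drug exposure lasted 7 days before readout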
Conditions: for viability, T/C: stronger effect = lower value
Outline: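 Multi-cell spheroids of 60% tumour cells, 25% HUVEC and 15% MSC in ultra-low-attachment U-bottom wells, treated with agents combined with ipatasertib or abemaciclib. Half-log ranges top out near clinical Cmax, or 10 microM when Cmax is unknown.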

[1] = curve of first compound, second compound 0.1 µM
[2] = curve of first compound, second compound 0.316 µM
[3] = curve of first compound, second compound 1 µM
[4] = second compound 0.1 µM, first compound 0.0316 µM
[5] = second compound 0.1 µM, first compound 0.1 µM
[6] = second compound 0.1 µM, first compound 0.316 µM
[7] = second compound 0.1 µM, first compound 1 µM
[8] = second compound 0.316 µM, first compound 0.0316 µM
[9] = second compound 0.316 µM, first compound 0.1 µM
[10] = second compound 0.316 µM, first compound 0.316 µM
[11] = second compound 0.316 µM, first compound 1 µM
[12] = second compound 1 µM, first compound 0.0316 µM
[13] = second compound 1 µM, first compound 0.1 µM
[14] = second compound 1 µM, first compound 0.316 µM
[15] = second compound 1 µM, first compound 1 µM

COc1c(OCCCN2CCOCC2)ccc2c3n(c(=NC(=O)c4cnc(N)nc4)nc12)CCN3 + CC(C)NCC(C(=O)N1CCN(c2ncnc3c2C(C)CC3O)CC1)c1ccc(Cl)cc1
IC50 [1]: 33.2 nM
IC50 [2]: 18.8 nM
IC50 [3]: 8.74 nM
IC50 (curve of first compound, second compound 3.16 µM): 3.84 nM
IC50 (curve of first compound, second compound 10 µM): < 3.16 nM
viability, T/C (second compound 0.1 µM, first compound 0.00316 µM): 90.4%
viability, T/C (second compound 0.1 µM, first compound 0.01 µM): 76.8%
viability, T/C [4]: 47.4%
viability, T/C [5]: 31%
viability, T/C [6]: 15%
viability, T/C [7]: 5.13%
viability, T/C (second compound 0.316 µM, first compound 0.00316 µM): 81.7%
viability, T/C (second compound 0.316 µM, first compound 0.01 µM): 56.4%
viability, T/C [8]: 43.5%
viability, T/C [9]: 27%
viability, T/C [10]: 14.7%
viability, T/C [11]: 5.04%
viability, T/C (second compound 1 µM, first compound 0.00316 µM): 57.7%
viability, T/C (second compound 1 µM, first compound 0.01 µM): 50%
viability, T/C [12]: 36.6%
viability, T/C [13]: 24.9%
viability, T/C [14]: 14.8%
viability, T/C [15]: 5.35%
viability, T/C (second compound 3.16 µM, first compound 0.00316 µM): 51.3%
viability, T/C (second compound 3.16 µM, first compound 0.01 µM): 44.5%
viability, T/C (second compound 3.16 µM, first compound 0.0316 µM): 39.3%
viability, T/C (second compound 3.16 µM, first compound 0.1 µM): 25.2%
viability, T/C (second compound 3.16 µM, first compound 0.316 µM): 15.1%
viability, T/C (second compound 3.16 µM, first compound 1 µM): 5%
viability, T/C (second compound 10 µM, first compound 0.00316 µM): 45.5%
viability, T/C (second compound 10 µM, first compound 0.01 µM): 43.9%
viability, T/C (second compound 10 µM, first compound 0.0316 µM): 33.6%
viability, T/C (second compound 10 µM, first compound 0.1 µM): 20.3%
viability, T/C (second compound 10 µM, first compound 0.316 µM): 13.2%
viability, T/C (second compound 10 µM, first compound 1 µM): 3.28%

CC1(C)CCC(CN2CCN(c3ccc(C(=O)NS(=O)(=O)c4ccc(NCC5CCOCC5)c([N+](=O)[O-])c4)c(Oc4cnc5[nH]ccc5c4)c3)CC2)=C(c2ccc(Cl)cc2)C1 + CCN1CCN(Cc2ccc(Nc3ncc(F)c(-c4cc(F)c5nc(C)n(C(C)C)c5c4)n3)nc2)CC1
IC50 (curve of first compound, second compound 0.01 µM): 5960 nM
IC50 (curve of first compound, second compound 0.0316 µM): 5580 nM
IC50 [1]: 5500 nM
IC50 [2]: 5710 nM
IC50 [3]: 6840 nM
viability, T/C (second compound 0.01 µM, first compound 0.0316 µM): 93.3%
viability, T/C (second compound 0.01 µM, first compound 0.1 µM): 107%
viability, T/C (second compound 0.01 µM, first compound 0.316 µM): 103%
viability, T/C (second compound 0.01 µM, first compound 1 µM): 99.8%
viability, T/C (second compound 0.01 µM, first compound 3.16 µM): 90.4%
viability, T/C (second compound 0.01 µM, first compound 10 µM): 16.8%
viability, T/C (second compound 0.0316 µM, first compound 0.0316 µM): 96.4%
viability, T/C (second compound 0.0316 µM, first compound 0.1 µM): 97%
viability, T/C (second compound 0.0316 µM, first compound 0.316 µM): 98.1%
viability, T/C (second compound 0.0316 µM, first compound 1 µM): 91.1%
viability, T/C (second compound 0.0316 µM, first compound 3.16 µM): 81%
viability, T/C (second compound 0.0316 µM, first compound 10 µM): 18.6%
viability, T/C [4]: 87.2%
viability, T/C [5]: 95.3%
viability, T/C [6]: 84.6%
viability, T/C [7]: 90.9%
viability, T/C (second compound 0.1 µM, first compound 3.16 µM): 76.7%
viability, T/C (second compound 0.1 µM, first compound 10 µM): 20.8%
viability, T/C [8]: 86.3%
viability, T/C [9]: 89.1%
viability, T/C [10]: 80.6%
viability, T/C [11]: 87.4%
viability, T/C (second compound 0.316 µM, first compound 3.16 µM): 80.2%
viability, T/C (second compound 0.316 µM, first compound 10 µM): 21.3%
viability, T/C [12]: 96.5%
viability, T/C [13]: 98.2%
viability, T/C [14]: 91.8%
viability, T/C [15]: 96.7%
viability, T/C (second compound 1 µM, first compound 3.16 µM): 101%
viability, T/C (second compound 1 µM, first compound 10 µM): 26.9%

CC(C)n1nc(-c2ccc3oc(N)nc3c2)c2c(N)ncnc21
viability, T/C (compound 0.000316 µM): 95.3% and 94.5%
viability, T/C (compound 0.001 µM): 92.4% and 104%
viability, T/C (compound 0.00316 µM): 74.8% and 76.7%
viability, T/C (compound 0.01 µM): 43.1% and 49.1%
viability, T/C (compound 0.0316 µM): 20.7% and 20.5%
viability, T/C (compound 0.1 µM): 15.8% and 14.6%
IC50 (curve of compound): 7.72 nM and 9.02 nM

CC(C)(C)c1cnc(CSc2cnc(NC(=O)C3CCNCC3)s2)o1
viability, T/C (compound 0.00949 µM): 102% and 104%
viability, T/C (compound 0.03 µM): 113% and 114%
viability, T/C (compound 0.0949 µM): 122% and 107%
viability, T/C (compound 0.3 µM): 4.21% and 2.95%
viability, T/C (compound 0.949 µM): 2.73% and 3.15%
viability, T/C (compound 3 µM): 2.69% and 3.46%
IC50 (curve of compound): 184 nM and 178 nM
